Results published in patent US4147787A, “4,5,6,7-Tetrahydro-thieno[2,3-c]-and [3,2-c]-pyridines, and therapeutic compositions containing the same” (Parcor, priority 1977, dated 1979).

Experiments:
[1] = tested on: rat globules (red corpuscles); experiment: In vitro anti-sludge activity, preventive treatment (protamine sulfate); type: cell-based
Protocol: (§1) Said activity was investigated in vitro and in vivo in rats.
(§2) Thrice washed rat globules are diluted to 1/250 in physiological saline. In each of 5 tubes are placed 0.6 ml of this suspension and 0.2 ml physiological saline. To each tube is then added 0-25-50-100 and 200 μg, respectively, of the test derivative contained in 0.2 ml solution. After incubation for one hour at 37° C., 0.2 ml of a solution containing 125 μg/ml protamine sulfate are added, after which the tube is then incubated again for 0.5 hour at 37° C. The globules of each tube are then examined with a Mallases cell, and the percent free globules and the percent aggregates formed by 2, 3, 4, 5 etc.. globules is then recorded.

[2] = tested on: Collagen-induced blood-platelet aggregation; experiment: Collagen-induced blood-platelet aggregation; type: in vivo, Wistar rats; settings: Rattus norvegicus, po; 100 mg/kg orally, rats, 3 hours after treatment; read-out: Percent inhibition of blood-platelet aggregation, Collagen
Protocol: (§3) A blood sample is taken from the jugular vein of Wistar rats. From this citrated blood and after centifugation, a plasma is reconstituted which contains 600,000 ± 20,000 blood-platelets per ml, which plasma is then used in all aggregation determinations.
(§4) 0.4 ml plasma is placed in a siliconized tube provided with a magnet bar, also siliconized. The tube is introduced into an aggregometer connected to an apparatus which records optical density variations. When light transmission has attained a stable value, 0.5 ml of a solution containing 10 μM A.D.P. (adenosinediphosphate) is added to the tube.
(§5) Blood-platelet aggregation induces an increase of light transmission, followed by a decrease subsequent to the deaggregation phase.
The A.D.P. solution is substituted with a collagen (bovine tendon extract) solution.
(§6) Different groups of 20 rats each are used, each group being orally administered 100 mg/kg of a test derivative.

[3] = Acute toxicity (LD50, method according to Miller and Tainter); settings: mouse, in vivo, mice, intravenous, read-out: LD50 /24h/kg body weight
[4] = tested on: A.D.P. induced blood-platelet aggregation; experiment: A.D.P. induced blood-platelet aggregation; type: in vivo, Wistar rats; settings: Rattus norvegicus, po; 100 mg/kg orally, rats, 3 hours after treatment, 10 μM A.D.P. solution; read-out: Percent inhibition of blood-platelet aggregation, A.D.P.
Protocol: as §3, §4, §5, §6

[5] = tested on: rat globules (red corpuscles); experiment: In vitro anti-sludge activity, curative procedure (protamine sulfate); type: cell-based; settings: 25 μg
Protocol: as §1, §2
The experiment was repeated according to a "curvative" procedure; the red corpuscles were first contacted with protamine sulfate and, after incubation for 0.5 hour, 0.2 ml containing 25 μg of test derivative were added thereto, which operation is followed by another incubation for one hour at 37° C. The results obtained are reported in Table III, in which the percent agglomerates as a function of size is indicated.

thrombus = experiment: Anti-thrombosis properties (metal helix in vena cava inferior, based on Friedman); type: in vivo, female Wistar rats; settings: from Table IV
Excerpt: The technique used is based on that disclosed by Friedman (Amer. J. Med. Sci., 253, 83, 1967). […] A 1.8 cm long sharp metal helix is introduced in the lumen of the vessel at the level of the renal fork and "screwed" toward the iliac veins. Five hours later, the animal is again anesthetized with ether. […] The helix, together with the thrombus it retains, is taken out after carefully opening the vena cava throughout the length involved; it is then dried by repeated dabbing with filter paper and is weighed a first time. Immediately thereafter, the helix is freed from its thrombus in a physiological saline bath, and is then again dried and weighed. The difference in weight gives the weight of the thrombus. It was found on histological examination that these were white thrombi.
Different groups of 10 rats each are treated by gastric intubation with one of the test derivatives, 48 hours, 24 hours and 2 hours prior to the implantation of the metal helix. Samples were taken five hours after said implantation.
Identical tests were carried out with dipyridamole and acetylsalicylic acid.

With `O=C(O)[C@@H]1NCc2ccsc2[C@@H]1O` (relative stereo) [Example 1, 6-Carboxy-7-hydroxy-4,5,6,7-tetrahydro-thieno[3,2-c]pyridine] the “percent agglomerates, size 2” value ([1]; 25 μg) was 25%, the “percent agglomerates, size 3” value ([1]; 25 μg) was 11% and the “percent agglomerates, size 4” value ([1]; 25 μg) was 0%. The “percent agglomerates, size 5” value ([1]; 25 μg) was 0%, the “percent agglomerates, size 6” value ([1]; 25 μg) was 0% and the “percent agglomerates, size 7” value ([1]; 25 μg) was 0%. The “percent agglomerates, size 8” value ([1]; 25 μg) was 0%, the “percent agglomerates, size 9” value ([1]; 25 μg) was 0% and the “percent agglomerates, size 10” value ([1]; 25 μg) was 0%. For the same compound, the “percent agglomerates, size 11” value ([1]; 25 μg) was 0%, the “percent agglomerates, size 12” value ([1]; 25 μg) was 0% and the “percent agglomerates, size 13” value ([1]; 25 μg) was 0%. The “percent free red corpuscles (size of agglomerates 1)” value (“percent free red corpuscles” for short) ([1]; 25 μg) was 64%, the “percent agglomerates, size 2” value ([1]; 50 μg) was 24% and the “percent agglomerates, size 3” value ([1]; 50 μg) was 5%. The “percent agglomerates, size 4” value ([1]; 50 μg) was 2%, the “percent agglomerates, size 5” value ([1]; 50 μg) was 0% and the “percent agglomerates, size 6” value ([1]; 50 μg) was 0%. The “percent agglomerates, size 7” value ([1]; 50 μg) was 0%, the “percent agglomerates, size 8” value ([1]; 50 μg) was 0% and the “percent agglomerates, size 9” value ([1]; 50 μg) was 0%. For the same compound, the “percent agglomerates, size 10” value ([1]; 50 μg) was 0%, the “percent agglomerates, size 11” value ([1]; 50 μg) was 0% and the “percent agglomerates, size 12” value ([1]; 50 μg) was 0%. For the same compound, the “percent agglomerates, size 13” value ([1]; 50 μg) was 0%, the “percent free red corpuscles” value ([1]; 50 μg) was 69% and the “percent agglomerates, size 2” value ([1]; 100 μg) was 7%. The “percent agglomerates, size 3” value ([1]; 100 μg) was 4%, the “percent agglomerates, size 4” value ([1]; 100 μg) was 3% and the “percent agglomerates, size 5” value ([1]; 100 μg) was 0%. For the same compound, the “percent agglomerates, size 6” value ([1]; 100 μg) was 0%, the “percent agglomerates, size 7” value ([1]; 100 μg) was 0% and the “percent agglomerates, size 8” value ([1]; 100 μg) was 0%. For the same compound, the “percent agglomerates, size 9” value ([1]; 100 μg) was 0%, the “percent agglomerates, size 10” value ([1]; 100 μg) was 0% and the “percent agglomerates, size 11” value ([1]; 100 μg) was 0%. The “percent agglomerates, size 12” value ([1]; 100 μg) was 0%, the “percent agglomerates, size 13” value ([1]; 100 μg) was 0% and the “percent free red corpuscles” value ([1]; 100 μg) was 86%. The “percent agglomerates, size 2” value ([1]; 200 μg) was 9%, the “percent agglomerates, size 3” value ([1]; 200 μg) was 2% and the “percent agglomerates, size 4” value ([1]; 200 μg) was 0%. For the same compound, the “percent agglomerates, size 5” value ([1]; 200 μg) was 0%, the “percent agglomerates, size 6” value ([1]; 200 μg) was 0% and the “percent agglomerates, size 7” value ([1]; 200 μg) was 0%. For the same compound, the “percent agglomerates, size 8” value ([1]; 200 μg) was 0%, the “percent agglomerates, size 9” value ([1]; 200 μg) was 0% and the “percent agglomerates, size 10” value ([1]; 200 μg) was 0%. The “percent agglomerates, size 11” value ([1]; 200 μg) was 0%, the “percent agglomerates, size 12” value ([1]; 200 μg) was 0% and the “percent agglomerates, size 13” value ([1]; 200 μg) was 0%. For the same compound, the “percent free red corpuscles” value ([1]; 200 μg) was 89%, the inhibition at 100 mg/kg [2] was 95.8% and the LD50 at 24 h [3] was 118 mg/kg. The inhibition at 100 mg/kg [4] was 63.8%.

In the case of `O=C(O)C1Cc2sccc2CN1Cc1ccccc1Cl` (centres unmarked) [Example 23, 5-o-Chlorobenzyl-6-carboxy-4,5,6,7-tetrahydro-thieno[3,2-c]pyridine], the “percent agglomerates, size 2” value ([1]; 25 μg) is reported as 21%, the “percent agglomerates, size 3” value ([1]; 25 μg) is reported as 16% and the “percent agglomerates, size 4” value ([1]; 25 μg) is reported as 3%. The “percent agglomerates, size 5” value ([1]; 25 μg) was 0%, the “percent agglomerates, size 6” value ([1]; 25 μg) was 0% and the “percent agglomerates, size 7” value ([1]; 25 μg) was 0%. The “percent agglomerates, size 8” value ([1]; 25 μg) was 0%, the “percent agglomerates, size 9” value ([1]; 25 μg) was 0% and the “percent agglomerates, size 10” value ([1]; 25 μg) was 0%. For the same compound, the “percent agglomerates, size 11” value ([1]; 25 μg) was 0%, the “percent agglomerates, size 12” value ([1]; 25 μg) was 0% and the “percent agglomerates, size 13” value ([1]; 25 μg) was 0%. For the same compound, the “percent free red corpuscles” value ([1]; 25 μg) was 60%, the “percent agglomerates, size 2” value ([1]; 50 μg) was 25% and the “percent agglomerates, size 3” value ([1]; 50 μg) was 6%. For the same compound, the “percent agglomerates, size 4” value ([1]; 50 μg) was 4%, the “percent agglomerates, size 5” value ([1]; 50 μg) was 0% and the “percent agglomerates, size 6” value ([1]; 50 μg) was 0%. The “percent agglomerates, size 7” value ([1]; 50 μg) was 0%, the “percent agglomerates, size 8” value ([1]; 50 μg) was 0% and the “percent agglomerates, size 9” value ([1]; 50 μg) was 0%. The “percent agglomerates, size 10” value ([1]; 50 μg) was 0%, the “percent agglomerates, size 11” value ([1]; 50 μg) was 0% and the “percent agglomerates, size 12” value ([1]; 50 μg) was 0%. For the same compound, the “percent agglomerates, size 13” value ([1]; 50 μg) was 0%, the “percent free red corpuscles” value ([1]; 50 μg) was 65% and the “percent agglomerates, size 2” value ([1]; 100 μg) was 14%. The “percent agglomerates, size 3” value ([1]; 100 μg) was 5%, the “percent agglomerates, size 4” value ([1]; 100 μg) was 1% and the “percent agglomerates, size 5” value ([1]; 100 μg) was 0%. For the same compound, the “percent agglomerates, size 6” value ([1]; 100 μg) was 0%, the “percent agglomerates, size 7” value ([1]; 100 μg) was 0% and the “percent agglomerates, size 8” value ([1]; 100 μg) was 0%. The “percent agglomerates, size 9” value ([1]; 100 μg) was 0%, the “percent agglomerates, size 10” value ([1]; 100 μg) was 0% and the “percent agglomerates, size 11” value ([1]; 100 μg) was 0%. The “percent agglomerates, size 12” value ([1]; 100 μg) was 0%, the “percent agglomerates, size 13” value ([1]; 100 μg) was 0% and the “percent free red corpuscles” value ([1]; 100 μg) was 78%. For the same compound, the “percent agglomerates, size 2” value ([1]; 200 μg) was 11%, the “percent agglomerates, size 3” value ([1]; 200 μg) was 4% and the “percent agglomerates, size 4” value ([1]; 200 μg) was 2%. For the same compound, the “percent agglomerates, size 5” value ([1]; 200 μg) was 0%, the “percent agglomerates, size 6” value ([1]; 200 μg) was 0% and the “percent agglomerates, size 7” value ([1]; 200 μg) was 0%. For the same compound, the “percent agglomerates, size 8” value ([1]; 200 μg) was 0%, the “percent agglomerates, size 9” value ([1]; 200 μg) was 0% and the “percent agglomerates, size 10” value ([1]; 200 μg) was 0%. For the same compound, the “percent agglomerates, size 11” value ([1]; 200 μg) was 0%, the “percent agglomerates, size 12” value ([1]; 200 μg) was 0% and the “percent agglomerates, size 13” value ([1]; 200 μg) was 0%. The “percent free red corpuscles” value ([1]; 200 μg) was 83%, the inhibition at 100 mg/kg [2] was 95.2% and the “percent agglomerates, size 2” value [5] was 10%. The “percent agglomerates, size 3” value [5] was 4%, the “percent agglomerates, size 4” value [5] was 1% and the “percent agglomerates, size 5” value [5] was 0%. The “percent agglomerates, size 6” value [5] was 0%, the “percent agglomerates, size 7” value [5] was 0% and the “percent agglomerates, size 8” value [5] was 0%. The “percent agglomerates, size 9” value [5] was 0%, the “percent agglomerates, size 10” value [5] was 0% and the “percent free red corpuscles” value [5] was 85%. It also gave an LD50 at 24 h [3] of 180 mg/kg and an inhibition at 100 mg/kg [4] of 63.9%.

For `CC(=O)Oc1ccccc1C(=O)O` [acetylsalicylic acid], the “anti-thrombosis activity (in words)” value (thrombus) was “little activity”.

In the case of `OCCN(CCO)c1nc(N2CCCCC2)c2nc(N(CCO)CCO)nc(N3CCCCC3)c2n1` [dipyridamole], the “anti-thrombosis activity (in words)” value (thrombus) is reported as “no activity”.
